Data from the supplement of paper PMC8967900.

Assays:
Assay in all cases: selective drug sensitivity score (sDSS, relative to normal bone marrow) (sDSS (score)); higher = more potent and effective on the cell line relative to normal bone marrow cells
Details in all cases: 72 h
KASUMI-10 = test system: KASUMI-10
MOLT-4 = test system: MOLT-4
NALM-16 = test system: NALM-16
JURKAT = test system: JURKAT
REH = test system: REH
COG-LL-319h = test system: COG-LL-319h
TANOUE = test system: TANOUE
RCH-ACV = test system: RCH-ACV
HPB-ALL = test system: HPB-ALL
MOLT-14 = test system: MOLT-14
DND-41 = test system: DND-41
P30-OHKUBO = test system: P30-OHKUBO
ALL-PO = test system: ALL-PO
KASUMI-9 = test system: KASUMI-9
COG-LL-355h = test system: COG-LL-355h
ALL-SIL = test system: ALL-SIL
PEER = test system: PEER
380 = test system: 380
COG-LL-394h = test system: COG-LL-394h
COG-LL-317 = test system: COG-LL-317
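Also: ALL cell lines in 384-well plates, five doses spanning 10,000-fold, each plate scaled between vehicle and 100 µmol/L benzalkonium chloride controls, sDSS an adapted area-under-curve metric.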

Structure (SMILES)	selective drug sensitivity score (KASUMI-10)	selective drug sensitivity score (MOLT-4)	selective drug sensitivity score (NALM-16)	selective drug sensitivity score (JURKAT)	selective drug sensitivity score (REH)	selective drug sensitivity score (COG-LL-319h)	selective drug sensitivity score (TANOUE)	selective drug sensitivity score (RCH-ACV)	selective drug sensitivity score (HPB-ALL)	selective drug sensitivity score (MOLT-14)	selective drug sensitivity score (DND-41)	selective drug sensitivity score (P30-OHKUBO)	selective drug sensitivity score (ALL-PO)	selective drug sensitivity score (KASUMI-9)	selective drug sensitivity score (COG-LL-355h)	selective drug sensitivity score (ALL-SIL)	selective drug sensitivity score (PEER)	selective drug sensitivity score 380	selective drug sensitivity score (COG-LL-394h)	selective drug sensitivity score (COG-LL-317)
Nc1cc(COc2c(Cl)cc(C[C@H](N)C(=O)O)cc2Cl)c2oc(-c3ccccc3)nc2c1 [JPH203] (top concentration 5000 nM)	0.2	0	0	0	0.2	0	0	4.5	0	0	0	2.2	0	2.2	1.5	0	0	1.2	0	0
CNC(=O)c1ccc(-c2cnc3ncc(Cc4ccc5ncccc5c4)n3n2)cc1F [Capmatinib] (top concentration 1000 nM)	-0.06	-0.06	-0.06	-0.06	-0.06	14.9	0.44	-0.06	-0.06	-0.06	0.34	-0.06	-0.06	-0.06	0.04	-0.06	-0.06	2.04	-0.06	0.34
NC(=S)N/N=C/c1ncccc1N [Triapine] (top concentration 10000 nM)	6.88	1.98	2.68	2.28	3.88	10.6	-1.32	7.38	1.58	2.08	7.38	2.88	2.28	3.98	1.08	6.78	2.08	5.88	0.88	0.88
CS(=O)(=O)CCNCc1ccc(-c2ccc3ncnc(Nc4ccc(OCc5cccc(F)c5)c(Cl)c4)c3c2)o1 [Lapatinib] (top concentration 1000 nM)	0	0	0	0	0	0	0	0	0	0	0	0.3	0	0.2	0	0	0	0	0	0
C[C@]12CC[C@@H]3c4ccc(O)cc4C[C@@H](CCCCCCCCC[S+]([O-])CCCC(F)(F)C(F)(F)F)[C@H]3[C@@H]1CC[C@@H]2O (stereo not given in full) [Fulvestrant] (top concentration 1000 nM)	0	0	0	0	0.2	0	0	0	0.2	0	8.3	0	2.3	0	1.3	5.3	0	0	0	0
Cc1cc2c(C(=O)NC[C@H](C)c3ccccc3)c(O)c(O)cc2c(O)c1-c1c(C)cc2c(C(=O)NC[C@H](C)c3ccccc3)c(O)c(O)cc2c1O [Sabutoclax] (top concentration 25000 nM)	5.18	9.18	6.78	16.7	17.5	10.8	2.98	16.8	19.4	16.8	10.6	15.9	12.2	14.9	15.6	12.2	14.5	14.1	15.7	15.6
COc1cc(N2CCC(N3CCN(C)CC3)CC2)ccc1Nc1ncnc(Nc2ccccc2S(=O)(=O)C(C)C)n1 [ASP3026] (top concentration 10000 nM)	2.86	-0.14	-2.64	-1.54	3.26	-4.04	-2.64	-0.74	1.26	1.36	0.56	-1.04	5.36	-0.84	1.36	0.16	-0.24	-2.74	2.36	-1.44
CC(C)Cn1cnc2c(N)nc3ccccc3c21 [Imiquimod] (top concentration 2500 nM)	0	0	0	0	5.1	0	0.1	1.7	2.6	0	0	0	0.4	0.9	0.6	0	0	9	0.8	0
CC[C@H](C)C(=O)O[C@H]1C[C@H](O)C=C2C=C[C@H](C)[C@H](CC[C@@H](O)C[C@@H](O)CC(=O)O)[C@H]21 [Pravastatin] (top concentration 10000 nM)	-0.66	-0.66	-0.66	-0.66	-0.66	0.64	-0.66	-0.56	-0.66	-0.16	-0.66	-0.66	-0.66	-0.66	-0.56	-0.66	-0.66	3.04	-0.66	0.94
CN[C@@H](C)C(=O)N[C@H]1CN(C(=O)CC(C)C)CC[C@H]2CC[C@@H](C(=O)NC(c3ccccc3)c3ccccc3)N2C1=O [AT-406] (top concentration 10000 nM)	-1.26	-1.26	-1.26	-1.26	5.74	-1.06	-1.26	0.84	-1.26	-1.26	-1.26	-1.06	-1.26	-1.26	8.04	-1.26	-1.16	-1.26	5.84	0.64
Nc1nc2cc(-c3ccc4ncc(C(=O)N5CCOCC5)n4c3)ccc2o1 [Serabelisib] (top concentration 10000 nM)	-1.54	-1.54	-1.44	-1.54	0.76	-0.44	-1.54	6.56	0.66	0.96	0.66	1.46	4.96	2.56	4.06	0.36	-1.04	-0.44	-1.54	-1.54
CCn1cc(-c2ccnc3[nH]c(-c4cccc(CN(C)C)c4)cc23)c(-c2ccc(NC(=O)N(C)C)cc2)n1 (top concentration 1000 nM)	9.86	13.1	-1.84	-1.84	19.3	22.9	-1.84	14	-0.44	15.9	-0.84	26.6	13.2	20.3	8.36	21.3	20.4	19	0.36	18.7
Cc1nc(C(=O)NCC(=O)O)c(O)c2ccc(Oc3ccccc3)cc12 [Roxadustat] (top concentration 10000 nM)	-1.12	-1.12	-1.12	-0.42	-1.12	2.28	-1.12	-1.12	5.28	-0.32	-1.12	-1.12	-0.82	-0.82	-1.12	-1.12	0.58	7.48	-1.12	-1.12
Cc1ccc(F)c(NC(=O)Nc2ccc(-c3cccc4[nH]nc(N)c34)cc2)c1 [Linifanib] (top concentration 1000 nM)	6.08	-1.12	-1.12	-1.12	-1.12	-1.12	-1.12	-1.12	-1.12	-1.12	-0.02	-1.12	-1.12	-1.12	-1.12	-1.12	-1.12	-1.12	-1.12	-1.12
CC(C)(C)C[C@@H]1N[C@@H](C(=O)N[C@H]2CC[C@H](O)CC2)[C@H](c2cccc(Cl)c2F)[C@]12C(=O)Nc1cc(Cl)ccc12 (top concentration 10000 nM)	12.5	12.9	-3.54	-4.74	3.56	13.9	-7.84	12.4	-3.44	9.56	-3.84	12.4	-1.84	16.4	8.46	-3.34	-2.04	14.3	6.46	19.9
N#Cc1ccnc(N2C(=O)CC[C@H]2C(=O)N(c2cncc(F)c2)[C@H](C(=O)NC2CC(F)(F)C2)c2ccccc2Cl)c1 [Ivosidenib] (top concentration 10000 nM)	0	0.2	0	0.7	0.6	0	0	0	0	0.1	0	1.1	0	0.9	0	2	0.6	3	0	1.8
CC1(C)NC(=O)N(c2ccc([N+](=O)[O-])c(C(F)(F)F)c2)C1=O [Nilutamide] (top concentration 10000 nM)	0.22	-0.48	-0.48	1.32	0.22	-0.48	-0.48	-0.48	-0.48	-0.48	-0.38	-0.18	-0.08	-0.28	-0.48	0.82	0.32	-0.48	-0.48	-0.48
CCC(C)(C)C(=O)O[C@H]1C[C@@H](C)C=C2C=C[C@H](C)[C@H](CC[C@@H]3C[C@@H](O)CC(=O)O3)[C@H]21 [Simvastatin] (top concentration 10000 nM)	-0.72	-0.72	-0.72	-0.52	0.88	0.68	-0.72	2.18	0.38	-0.22	-0.72	1.28	-0.72	4.18	3.48	2.38	1.48	4.88	-0.72	6.68
